Laboratory results published in patent publication US20100323990A1, “SHIP 1 MODULATOR PRODRUGS” (THE UNIVERSITY OF BRITISH COLUMBIA, priority 2006, published 2010).

Legend:
[1] = test system: SHIP+/+ bone marrow derived macrophages; test: LPS-stimulated TNFα production in SHIP+/+ bone marrow derived macrophages; type: cell-based, mice; details: for suppression of TNFα production: SHIP+/+ cells, 10 ng/mL LPS 2 h
Experimental: Bone marrow cells were aspirated from 4 to 8 week old C57B16×129Sv mixed background mice and SHIP^+/+ and SHIP^−/− mast cells prepared as described previously. Bone marrow derived macrophages from SHIP^+/+ and SHIP^−/− mice were obtained and maintained in IMDM supplemented with 10% FCS, 150 μM MTG, 2% C127 cell conditioned medium as a source of macrophage colony stimulating factor (M-CSF) (macrophage medium)
LPS stimulation of macrophages. For the analysis of LPS-stimulated TNFα production, 2×10^5 cells were plated the night before in 24 well plates in macrophage medium. The next day, the medium was changed and AQX-016A or carrier was added to cells at the indicated concentrations for 30 min prior to the addition of 10 ng/mL LPS. Supernatants were collected for TNFα determination by ELISA (BD Biosciences, Mississauga, ON, Canada). For analysis of intracellular signaling, 2×10^6 cells were plated the night before in 6 cm tissue culture plates. The next day, the cells were cultured in macrophage medium without M-CSF for 1 hr at 37° C. and then pretreated with AQX-016A or carrier for 30 min prior to the addition of 10 ng/mL LPS for 15 min. Cells were washed with 4° C. PBS and resuspended in lysis buffer (50 mM Hepes, 2 mM EDTA, 1 mM NaVO4, 100 mM NaF, 50 mM NaPPi and 1% NP40) supplemented with Complete Protease Inhibitor Cocktail (Roche, Montreal, Canada). Lysates were rocked at 4° C. for 30 min and clarified by centrifuging 20 min at 12000×g. Lysates were then made 1× in Laemmli's buffer, boiled 2 min and loaded onto 7.5% SDS polyacrylamide […]. Immunoblot analysis for phospho PKB (Cell Signalling, Mississauga, Ont), SHIP and actin (Santa Cruz, Santa Cruz, Calif.) were carried out as described previously. Stimulation of mast cells by FcεRI crosslinking. Mast cells were pre-loaded overnight in BMMC medium lacking IL-3 with 0.1 μg/ml anti-DNP IgE (SPE-7, Sigma, Oakville, Ont). For calcium flux measurements, cells were incubated with 2 μM fura 2-acetoxymethyl ester (Molecular Probes, Eugene, Oreg.) in Tyrode's buffer at 23° C. for 45 min. Cells were then washed and incubated in the presence of vehicle control, LY294002 or AQX-016A 30 min prior to stimulation with the indicated concentration of DNP-human serum albumin (DNP-HSA). Calcium influx was monitored by spectrofluorometry. For analysis of intracellular signaling, cells were pre-loaded with anti-DNP IgE as above, pre-treated with AQX-016A or buffer control for 30 min at 37° C. and stimulated with 20 ng/ml DNP-HSA for 5 min. Total cell lysates were then prepared and analyzed for phospho-PKB, phospho-p38^MAPK, phospho-MAPK, Grb-2 (Cell Signalling, Mississauga, Ont) and SHIP^6 by immunoblot analysis.
The target specificity and biological efficacy of AQX-016A were assessed by comparing AQX-016A's effects on PI3K-regulated processes in primary SHIP^+/+ vs SHIP^−/− macrophages and mast cells. […] LPS stimulation of macrophages is associated with a PIP3-dependent release of pro-inflammatory mediators such as TNFα. The action of AQX-016A on SHIP^+/+ vs SHIP^−/− bone marrow derived macrophages was examined. Cells were pretreated for 30 min with AQX-016A prior to stimulation with 10 ng/mL of LPS for 2 h. AQX-016A was able to suppress TNFα production in SHIP^+/+ cells by 30% at 3 μM and 50% at 15 μM (FIG. 8A). […] Activation of mast cells via IgE+ antigen crosslinking of their IgE receptors results in elevation of intracellular calcium levels.

[2] = Initial toxicology studies; type: in vivo; details: data not shown
Text: A novel paradigm for inhibiting PI3K signaling through activation of the phosphatases that negatively regulate this pathway is provided. SHIP is a particularly good target for immune/hematopoietic disorders because of its restricted expression to hematopoietic cells. Because the relative activity of phosphatases present in a cell will influence the efficacy of kinase inhibitors, as discussed by Knight and Shokat, SHIP agonists may also be used to potentiate the activation of PI3K inhibitors and promote tissue targeting of PI3K inhibitors to the ematopoietic/immune cell compartment.

SMILES | TNFα production, SHIP+/+ vs SHIP−/− macrophages ([1]; LPS stimulated) | EC50 ([1]; Mus musculus, Macrophage, SHIP+/+ macrophages, LPS stimulated, read-out: EC50 for inhibition of TNFα production) | peripheral blood cell counts and bone marrow progenitor numbers [2] | tolerability [2] | suppression of TNFα production ([1]; 3 μM) | suppression of TNFα production ([1]; 15 μM)
Cc1cc(O)cc2c1[C@]1(C)CCC3C(C)(C)CCC[C@]3(C)[C@H]1C2 (some centres unmarked) [Compound 100] | selectively inhibited | 300 to 600 nM | do not significantly affect | well tolerated | – | –
Cc1cc(O)c(O)c2c1[C@]1(C)CCC3C(C)(C)CCC[C@]3(C)[C@H]1C2 (some centres unmarked) [AQX-016A] | – | – | do not significantly affect | well tolerated | 30% | 50%
